Data: US20260297080A1, “BICYCLIC COMPOUNDS AS CDK INHIBITORS” (BeOne Medicines I GmbH, priority 2022, published 2026)

Assays:
CDK2/Cyclin E1 = CDK2/Cyclin E1 (Homo sapiens, UniProt P24941); experiment: CDK2/Cyclin E1 Biochemical Assay (TR-FRET), 0.060 mM ATP; conditions: 0.15 μM Rb (Ser780)-biotin substrate, pH7.0, 60 min preincubation, 120 min reaction, room temperature
Procedure, shortened: (§1)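 TR-FRET readout: 665/620 nm ratio from Eu-cryptate anti-pRb(Ser780) antibody plus streptavidin-XL665, converted to % inhibition and fitted (4-parameter logistic) for IC50. Reactions used 0.15 μM biotinylated Rb (Ser780) substrate, compound 0–10 μM, 60 min enzyme–compound preincubation, then 120 min reaction at room temperature.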

CDK1/Cyclin B1 = CDK1/Cyclin B1 (Homo sapiens, UniProt P06493); experiment: CDK1/Cyclin B1 Biochemical Assay (TR-FRET), 0.015 mM ATP; conditions: 0.15 μM Rb (Ser780)-biotin substrate, pH7.0, 60 min preincubation, 120 min reaction, room temperature
Procedure, shortened: as §1

Chain of CDK1/Cyclin B1 (P06493 whole entry): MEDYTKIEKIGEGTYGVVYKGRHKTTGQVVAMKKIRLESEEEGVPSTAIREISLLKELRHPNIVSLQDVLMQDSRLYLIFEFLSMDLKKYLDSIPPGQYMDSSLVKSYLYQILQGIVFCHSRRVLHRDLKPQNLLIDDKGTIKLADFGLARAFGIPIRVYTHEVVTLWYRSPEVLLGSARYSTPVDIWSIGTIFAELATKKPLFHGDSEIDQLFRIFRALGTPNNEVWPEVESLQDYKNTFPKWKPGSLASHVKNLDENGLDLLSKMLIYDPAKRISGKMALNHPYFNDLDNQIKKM
Chain of CDK1/Cyclin B1 (P14635 whole entry partner): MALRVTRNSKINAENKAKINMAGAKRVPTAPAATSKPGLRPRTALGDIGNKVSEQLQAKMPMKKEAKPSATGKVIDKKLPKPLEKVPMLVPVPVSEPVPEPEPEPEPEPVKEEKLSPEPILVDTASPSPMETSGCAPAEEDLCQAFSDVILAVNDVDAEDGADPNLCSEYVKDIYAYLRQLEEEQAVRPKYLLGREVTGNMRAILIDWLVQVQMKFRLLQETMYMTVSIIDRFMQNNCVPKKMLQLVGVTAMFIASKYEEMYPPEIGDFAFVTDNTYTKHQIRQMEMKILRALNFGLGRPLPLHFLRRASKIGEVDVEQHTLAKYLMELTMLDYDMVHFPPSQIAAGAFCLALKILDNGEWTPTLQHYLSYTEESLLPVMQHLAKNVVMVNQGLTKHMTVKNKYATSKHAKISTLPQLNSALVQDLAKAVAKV

Row | IC50 (CDK2/Cyclin E1) | IC50 (CDK1/Cyclin B1) | SMILES
1 | 5.4 nM | 41 nM | CC(C)NC(=O)O[C@H]1CC[C@@H](c2cc(Nc3ccc4c(c3)CS(=O)(=O)N4C3CC3)n[nH]2)C1 (relative stereo) [Example 203, cis-3-(3-((1-cyclopropyl-2,2-dioxido-1,3-dihydrobenzo[c]isothiazol-5-yl)amino)-1H-pyrazol-5-yl)cyclopentyl isopropylcarbamate]
2 | 1.8 nM | 51 nM | COCCN1c2ccc(Nc3cc([C@@H]4CC[C@H](OC(=O)NC(C)C)C4)[nH]n3)cc2CS1(=O)=O (relative stereo) [Example 204, cis-3-(3-((1-(2-methoxyethyl)-2,2-dioxido-1,3-dihydrobenzo[c]isothiazol-5-yl)amino)-1H-pyrazol-5-yl)cyclopentyl isopropylcarbamate]
3 | 7.5 nM | 41 nM | CC(C)NC(=O)O[C@H]1CC[C@@H](c2cc(Nc3ccc4c(c3)CS(=O)(=O)N4CC(F)(F)F)n[nH]2)C1 (relative stereo) [Example 205, cis-3-(3-((2,2-dioxido-1-(2,2,2-trifluoroethyl)-1,3-dihydrobenzo[c]isothiazol-5-yl)amino)-1H-pyrazol-5-yl)cyclopentyl isopropylcarbamate]
4 | 6.4 nM | 63 nM | [2H]C([2H])([2H])N1c2ccc(Nc3cc([C@@H]4CC[C@H](OC(=O)NC(C)C)C4)[nH]n3)cc2CS1(=O)=O (relative stereo) [Example 206, cis-3-(3-((1-(methyl-d3)-2,2-dioxido-1,3-dihydrobenzo[c]isothiazol-5-yl)amino)-1H-pyrazol-5-yl)cyclopentyl isopropylcarbamate]
5 | 6.6 nM | 35 nM | CC(C)NC(=O)O[C@H]1CC[C@@H](c2cc(Nc3ccc4c(c3)C(C)S(=O)(=O)N4C)n[nH]2)C1 (relative stereo) [Example 207, cis-3-(3-((1,3-dimethyl-2,2-dioxido-1,3-dihydrobenzo[c]isothiazol-5-yl)amino)-1H-pyrazol-5-yl)cyclopentyl isopropylcarbamate]
6 | 16 nM | 262 nM | CC(C)NC(=O)O[C@H]1CC[C@@H](c2cc(Nc3ccc4c(c3)CS(=O)(=O)N4C(C)C3COC3)n[nH]2)C1 (relative stereo) [Example 208, cis-3-(3-((1-(1-(oxetan-3-yl)ethyl)-2,2-dioxido-1,3-dihydrobenzo[c]isothiazol-5-yl)amino)-1H-pyrazol-5-yl)cyclopentyl isopropylcarbamate]
7 | 5.4 nM | 37 nM | CC(C)NC(=O)O[C@H]1CC[C@@H](c2cc(Nc3ccc4c(c3)CS(=O)(=O)N4C3COC3)n[nH]2)C1 (relative stereo) [Example 209, cis-3-(3-((1-(oxetan-3-yl)-2,2-dioxido-1,3-dihydrobenzo[c]isothiazol-5-yl)amino)-1H-pyrazol-5-yl)cyclopentyl isopropylcarbamate]
8 | 2.1 nM | 40 nM | CC(C)NC(=O)O[C@H]1CC[C@@H](c2cc(Nc3ccc4c(c3)CS(=O)(=O)N4CC3COC3)n[nH]2)C1 (relative stereo) [Example 210, cis-3-(3-((1-(oxetan-3-ylmethyl)-2,2-dioxido-1,3-dihydrobenzo[c]isothiazol-5-yl)amino)-1H-pyrazol-5-yl)cyclopentyl isopropylcarbamate]
9 | 8.4 nM | 197 nM | CC(C)NC(=O)O[C@H]1CC[C@@H](c2cc(Nc3ccc4c(c3)CS(=O)(=O)N4CC3CCC3)n[nH]2)C1 (relative stereo) [Example 211, cis-3-(3-((1-(cyclobutylmethyl)-2,2-dioxido-1,3-dihydrobenzo[c]isothiazol-5-yl)amino)-1H-pyrazol-5-yl)cyclopentyl isopropylcarbamate]
10 | 3.5 nM | 60 nM | CC(C)NC(=O)O[C@H]1CC[C@@H](c2cc(Nc3ccc4c(c3)CS(=O)(=O)N4CCN3CCOCC3)n[nH]2)C1 (relative stereo) [Example 212, cis-3-(3-((1-(2-morpholinoethyl)-2,2-dioxido-1,3-dihydrobenzo[c]isothiazol-5-yl)amino)-1H-pyrazol-5-yl)cyclopentyl isopropylcarbamate]
11 | 2.7 nM | 30 nM | CC(C)NC(=O)O[C@H]1CC[C@@H](c2cc(Nc3ccc4c(c3)CS(=O)(=O)N4CC3CN(C)C3)n[nH]2)C1 (relative stereo) [Example 213, cis-3-(3-((1-((1-methylazetidin-3-yl)methyl)-2,2-dioxido-1,3-dihydrobenzo[c]isothiazol-5-yl)amino)-1H-pyrazol-5-yl)cyclopentyl isopropylcarbamate]
12 | 1.7 nM | 44 nM | CC(=O)N1CC(CN2c3ccc(Nc4cc([C@@H]5CC[C@H](OC(=O)NC(C)C)C5)[nH]n4)cc3CS2(=O)=O)C1 (relative stereo) [Example 214, cis-3-(3-((1-((1-acetylazetidin-3-yl)methyl)-2,2-dioxido-1,3-dihydrobenzo[c]isothiazol-5-yl)amino)-1H-pyrazol-5-yl)cyclopentyl isopropylcarbamate]
13 | 3.1 nM | 30 nM | CC(C)NC(=O)O[C@H]1CC[C@@H](c2cc(Nc3ccc4c(c3)CS(=O)(=O)N4CCCO)n[nH]2)C1 (relative stereo) [Example 215, cis-3-(3-((1-(3-hydroxypropyl)-2,2-dioxido-1,3-dihydrobenzo[c]isothiazol-5-yl)amino)-1H-pyrazol-5-yl)cyclopentyl isopropylcarbamate]
14 | 7.8 nM | 54 nM | CC(C)NC(=O)O[C@H]1CC[C@@H](c2cc(Nc3ccc4c(c3)CS(=O)(=O)N4CC(C)(C)O)n[nH]2)C1 (relative stereo) [Example 216, cis-3-(3-((1-(2-hydroxy-2-methylpropyl)-2,2-dioxido-1,3-dihydrobenzo[c]isothiazol-5-yl)amino)-1H-pyrazol-5-yl)cyclopentyl isopropylcarbamate]
15 | 8.8 nM | 126 nM | CC(C)NC(=O)O[C@H]1CC[C@@H](c2cc(Nc3ccc4c(c3)CS(=O)(=O)N4CCC3CCOCC3)n[nH]2)C1 (relative stereo) [Example 217, cis-3-(3-((2,2-dioxido-1-(2-(tetrahydro-2H-pyran-4-yl)ethyl)-1,3-dihydrobenzo[c]isothiazol-5-yl)amino)-1H-pyrazol-5-yl)cyclopentyl isopropylcarbamate]
16 | 112 nM | 999 nM | CC(C)NC(=O)O[C@H]1CC[C@@H](c2cc(Nc3ccc4c(c3)CS(=O)(=O)N4C(C)C3CCOC3)n[nH]2)C1 (relative stereo) [Example 218, cis-3-(3-((2,2-dioxido-1-(1-(tetrahydrofuran-3-yl)ethyl)-1,3-dihydrobenzo[c]isothiazol-5-yl)amino)-1H-pyrazol-5-yl)cyclopentyl isopropylcarbamate]
17 | 8.6 nM | 49 nM | CCCNC(=O)O[C@H]1CC[C@@H](c2cc(Nc3ccc4c(c3)CS(=O)(=O)N4C)n[nH]2)C1 (relative stereo) [Example 221, cis-3-(3-((1-methyl-2,2-dioxido-1,3-dihydrobenzo[c]isothiazol-5-yl)amino)-1H-pyrazol-5-yl)cyclopentyl propylcarbamate]
18 | 5 nM | 48 nM | CC[C@H](C)NC(=O)O[C@H]1CC[C@@H](c2cc(Nc3ccc4c(c3)CS(=O)(=O)N4C)n[nH]2)C1 (relative stereo) [Example 222, cis-3-(3-((1-methyl-2,2-dioxido-1,3-dihydrobenzo[c]isothiazol-5-yl)amino)-1H-pyrazol-5-yl)cyclopentyl((S)-sec-butyl)carbamate]
